Assay results published in patent US7507739B2, “6-[(substituted)phenyl]triazolopyrimidines as anticancer agents” (Wyeth, priority 2003, dated 2009).
pIC50: −log10 of the molar value. Where two headings read alike, the source gives them in different places.

Experiments:
KB-8-5 cells = assay: MTS cytotoxicity test with KB-8-5 cells (moderate P-glycoprotein); type: cell-based, human; conditions: Homo sapiens, read-out: IC50 KB 8.5
From the text: (§1) Human cancer cell lines, unless otherwise noted, are obtained from the American Type Culture Collection (Rockville, Md.). The following drug-sensitive parental cell lines, and their derived drug-resistant counterparts, are obtained from the originators as listed: (a) S1 (parental line from a subclone of human colon carcinoma line LS174T) and derived S1-M1-3.2 (herein called S1-M1) which expresses the MXR drug transporter protein, are provided by Dr. L. Greenberger, Wyeth Research (Rabindran, S. K., He, H., Singh, M., Brown, E., Collins, K. I., Annable, T., and Greenberger, L. M. Reversal of a novel multidrug resistance mechanism in human colon carcinoma cells by fumitremorgin C. Cancer Res., 58:5850-5858,1998); (b) parental HL-60 human promyelocytic leukemia line and derived HL-60/ADR, which expresses the MRP1 drug transporter protein, are provided by Dr. M. Center, University of Kansas (McGrath, T., and Center, M. S. Adriamycin resistance in HL60 cells in the absence of detectable P-glycoprotein. Biochem. Biophys. […] J. Biol. Chem., 261: 7762-7770,1986) via Dr. L. Greenberger, Wyeth Research.
(§2) The assay, which is sold in kit form by Promega (Madison, Wis.; CellTiter 96 AQueous Non-Radioactive Cell Proliferation Assay), is based on the conversion by viable cells, but not by dead cells, of the tetrazolium salt, MTS (3-(4,5-dimethylthiazol-2-yl)-5-(3-carboxymethoxyphenyl)-2-(4-sulphophenyl)-2H-tetrazolium, inner salt), into a water-soluble colored formazan which is detected by spectrophotometry. Compounds are tested at nine concentrations, in order to determine IC50 values. For the test procedure, cells are harvested by trypsinization (or, in the case of non-adherent cells, by simple resuspension), washed, counted and distributed to wells of 96-well flat-bottom microtiter plates at 1000 cells per well in 200 μL of medium. In addition, one row of wells on a separate plate received cells as above (“time 0” plate). All plates are incubated at 37° in humidified 5% CO2 in air for about 24 hr.
(§3) On day 2, compounds for test are diluted and added to wells. Compounds are dissolved in DMSO at 10 mg/mL. For each compound, nine serial 2-fold dilutions are prepared in DMSO. Ten μL of each dilution in DMSO is transferred to 100 μL of medium, mixed well, and then 5 μL of this dilution is transferred in quadruplicate to wells containing cells. […] Plates are returned to the incubator for three days. At the time of drug addition to the experimental plates, the MTS assay is run on the “time 0” plate. This produced the “time 0 MTS value” which is related to the number of viable cells per well at the time of drug addition.
(§4) After three days of culture with test compounds (day 5 overall), the MTS assay is done on all wells of the experimental plates. The absorbance values of the quadruplicate sample wells are averaged and divided by the average of the “time 0” values. […] The nine values for each compound are plotted against concentration, and the concentration that produced a relative color yield half way between the maximum and minimum is taken as the IC50 value.
(§5) The KB lines express different amounts of the P-glycoprotein (MDR1) membrane pump which produces resistance to the action of many cytotoxic compounds, including paclitaxel and vincristine. The parental KB line expresses no P-glycoprotein, KB-8-5 expresses moderate levels of the protein, and KB-V1 expresses very high levels.

KB cells = assay: MTS cytotoxicity test with KB cells; type: cell-based; conditions: Homo sapiens, read-out: IC50 KB
From the text: as §1, §2, §3, §4, §5

S1-M1 cells = assay: MTS cytotoxicity test with S1-M1 cells (MXR); type: cell-based, human; conditions: for pIC50: Homo sapiens, read-out: IC50 S1-M1; for Ratio: IC50 on S1-M1 cells/IC50 on S1 cells
From the text: as §1, §2, §3, §4
S1-M1 cells overexpress the MXR transporter which mediates resistance to some chemotherapeutics (Gottesman, M. M., Fojo, T., and Bates, S. E. Miltidrug resistance in cancer: role of ATP-dependent transporters. Nature Rev. Cancer, 2: 48-58, 2002). The IC50 values of representative examples of this invention, as well as reference compounds, on S1-M1 are compared to values on the sensitive parental S1 line.

tubulin heterodimer = assay: Competitive binding test, [3H]colchicine; parameters: species or system bovine; conditions: [3H]colchicine 50 nM
Description: Medium is RPMI-1640 with L-glutamine, supplemented with 10% heat-inactivated fetal calf serum, 100 units/ml penicillin, and 100 μg/ml streptomycin (Gibco, Grand Island, N.Y.). Microtubule-associated protein (MAP)-rich tubulin, containing about 70% tubulin and 30% MAPs (#ML113), and highly purified tubulin (>99% pure, #TL238), both from bovine brain, are obtained from Cytoskeleton, Inc., Denver, Colo. PEM buffer (80 mM piperazine-N,N′-bis[2-ethanesulfonic acid], pH 6.9, 1 mM ethylene glycol-bis(β-aminoethyl ether)-N,N,N′,N′-tetraacetic acid, 1 mM magnesium chloride) and guanosine 5′-triphosphate (GTP) are also obtained from Cytoskeleton. [3H]paclitaxel, specific activity 14.7 Ci/mmol, is purchased from Moravek Biochemicals (Brea, Calif.). [^3H]vinblastine, specific activity 9.60 Ci/mmol and MicroSpin G-50 columns are obtained from Amersham Biosciences (Piscataway, N.J.). […] Other reagents are obtained from Sigma (St. Louis, Mo.).
The binding of examples of this invention to highly purified tubulin is studied by competitive inhibition methods. […] To study possible competition at the taxane site, on the other hand, polymerized tubulin (microtubules) is used because paclitaxel binds preferentially to microtubules.
Highly purified tubulin is dissolved in PEM buffer without GTP and used at a final concentration of 1.0 to 1.3 mg/ml (10 to 13 μM). […] These solutions are incubated at 24° for 1 hr and then applied to MicroSpin G-50 columns which are centrifuged for 2 min at 3000 rpm in an Eppendorf 5415C microfuge. An aliquot of each column effluent (containing tubulin and bound radioligand) is mixed with scintillation fluid and counted in a liquid scintillation spectrometer. […] The ability of the competitor to inhibit the binding of the radioligand is expressed as a percentage of control binding in the absence of any competitor.

pure tubulin = assay: Tubulin polymerization test with pure tubulin without GTP; type: biochemical, bovine; conditions: no GTP
Procedure, shortened: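 GTP-free polymerization using >99% pure bovine brain tubulin in PEM buffer (pH 6.9); centrifuged supernatant added to compounds. Duplicates at six 3-fold dilutions from 24.3 μM, read at 35°.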

Compound | pIC50 (KB-8-5 cells; KB-8-5 cells, MTS) | pIC50 (KB cells; KB cells, MTS) | pIC50 (S1-M1 cells; S1-M1 cells, MTS) | Ratio (S1-M1 cells) | [3H]Colchicine binding, percent of control without competitor, Mean (tubulin heterodimer) | A340 at 0 min (pure tubulin; 24.3 μM) | A340 at 5 min (pure tubulin; 24.3 μM) | A340 at 10 min (pure tubulin; 24.3 μM) | A340 at 15 min (pure tubulin; 24.3 μM) | A340 at 20 min (pure tubulin; 24.3 μM) | pIC50 (KB-8-5 cells) | pIC50 (KB cells; KB) | pIC50 (S1-M1 cells) | absorbance increase, polymerization of pure tubulin (pure tubulin; 2.7 μM) | absorbance increase, polymerization of pure tubulin (pure tubulin; 8.1 μM) | absorbance increase, polymerization of pure tubulin (pure tubulin; 24.3 μM, first 5 min)
OCCCOc1cc(F)c(-c2c(Cl)nc3ncnn3c2C2CCCCCC2)c(F)c1 [Example 30, 3-[4-(5-Chloro-7-cycloheptyl[1,2,4]triazolo[1,5-a]pyrimidin-6-yl)-3,5-difluorophenoxy]propan-1-ol] | 6.90 | 7.14 | 7.11 | 1.2 | 112% | 0 | 0.02 | 0.01 | 0.01 | 0.01 |  |  |  |  |  | 
CNCCCOc1cc(F)c(-c2c(Cl)nc3ncnn3c2N[C@@H](C)C(F)(F)F)c(F)c1.Cl [Example 2a, 5-Chloro-6-{2,6-difluoro-4-[3-(methylamino)propoxy]phenyl}-N-[(1S)-2,2,2-trifluoro-1-methylethyl][1,2,4]triazolo[1,5-a]pyrimidin-7-amine hydrogen chloride] |  |  |  | 1.0 | 122% | 0 | 0.25 | 0.24 | 0.23 | 0.22 | 7.19 | 7.62 | 7.16 | no effect | lower and less rapid increase | rapid increase in absorbance
C[C@H](Nc1c(-c2c(F)cc(OCCCN(C)C)cc2F)c(Br)nc2ncnn12)C(F)(F)F [Example 25, 5-Bromo-6-{4-[3-(dimethylamino)propoxy]-2,6-difluorophenyl}-N-[(1S)-2,2,2-trifluoro-1-methylethyl][1,2,4]triazolo[1,5-a]pyrimidin-7-amine] | 7.17 | 7.23 | 7.08 | 0.80 | 126% | 0 | 0.22 | 0.23 | 0.22 | 0.22 |  |  |  | no effect | lower and less rapid increase | rapid increase in absorbance
CN(C)CCCOc1cc(F)c(-c2c(Cl)nc3ncnn3c2NCC(F)(F)F)c(F)c1.Cl [Example 4a, 5-Chloro-6-{4-[3-(dimethylamino)propoxy]-2,6-difluorophenyl}-N-(2,2,2-trifluoroethyl)[1,2,4]triazolo[1,5-a]pyrimidin-7-amine Hydrogen chloride Salt] | 7.24 | 7.62 | 7.14 | 1.0 | 134% | 0 | 0.14 | 0.16 | 0.16 | 0.15 |  |  |  | no effect | lower and less rapid increase | rapid increase in absorbance
